Assay results: patent US6215002A, “Pyrrolopyrrolone derivatives as inhibitors of neutrophil elastase” (priority 1996, dated 2001)
Where a name gives a salt, the structure may show the parent alone.

target: T1, human neutrophil elastase (Homo sapiens, UniProt P08246); experiment: In vitro assay of human neutrophil elastase (HNE); assay type: biochemical; conditions: 118 nM purified human neutrophil elastase, pH 8.6, 15 min incubation at 30° C., MeO-succinyl-alanyl-alanyl-prolyl-valyl-p-nitroanilide substrate; read-out: HNE IC50
T1 sequence (P08246 30-267): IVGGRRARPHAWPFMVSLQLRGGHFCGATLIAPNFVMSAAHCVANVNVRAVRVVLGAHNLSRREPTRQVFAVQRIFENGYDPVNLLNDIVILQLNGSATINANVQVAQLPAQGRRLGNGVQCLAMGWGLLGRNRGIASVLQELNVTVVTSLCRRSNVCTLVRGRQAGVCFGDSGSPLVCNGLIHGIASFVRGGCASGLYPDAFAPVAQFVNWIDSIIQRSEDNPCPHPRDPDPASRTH
How it was run: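 Residual activity was taken as the 10 min rate of absorbance rise at 405 nm after adding 0.6 mM MeO-succinyl-AAPV-p-nitroanilide. Curve fitting of activity against concentration gave IC50.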

Compared with CCC[C@H]1C(=O)N(S(C)(=O)=O)[C@H]2CCN(C(=O)CN(CC)CC)[C@H]12 (relative stereo) [Example 101, rel-(3R,3aR,6aS)-4-Diethylaminoacetyl-1-methanesulfonyl-3-propyl-hexahydro-pyrrolo[3,2-b]pyrrol-2-one hydrochloride], CCC[C@H]1C(=O)N(S(C)(=O)=O)[C@H]2CCN(S(=O)(=O)c3ccc(NC(C)=O)c(Cl)c3)[C@H]12 (relative stereo) [Example 213, rel-N-[2-Chloro-4-(4-methanesulfonyl-5-oxo-6R-propyl-hexahydro-(3aS,6aR)-pyrrolo[3,2-b]pyrrole-1-sulfonyl)-phenyl]-acetamide] is 4.2-fold lower in IC50: 169 nM for the first, 40 nM for the second. The second is the more potent here.

First: CC[C@H]1C(=O)N(S(=O)(=O)c2ccc3ccccc3c2)[C@H]2CCN(S(=O)(=O)CCCN3CCOCC3)[C@H]12 (relative stereo) [Example 35, rel-(3R,3aR,6aS)-3-Ethyl-4-(3-morpholin-4-yl)-propane-1-sulfonyl)-1-(naphthalene-2-sulfonyl)-hexahydro-pyrrolo[3,2-b]pyrrol-2-one meso-tartrate]
Second: CCC[C@H]1C(=O)N(S(C)(=O)=O)[C@H]2CCN(C(=O)CCCCCN(CC)CC)[C@H]12 (relative stereo) [Example 76, rel-(3R,3aR,6aS)-4-(6-Diethylamino-hexanoyl)-1-methanesulfonyl-3-propyl-hexahydro-pyrrolo[3,2-b]pyrrol-2-one DL-tartrate]
The IC50 of the first is 4-fold higher: 697 nM for the first, 176 nM for the second.

Going from CCC[C@H]1C(=O)N(S(C)(=O)=O)[C@H]2CCN(C(=O)CCCCCN3CCCN(C)CC3)[C@H]12 (relative stereo) [Example 80, rel-(3R,3aR,6aS)-1-Methanesulfonyl-4-[6-(4-methyl-[1,4]diazepin-1-yl)-hexanoyl]-3-propyl-hexahydro-pyrrolo[3,2-b]pyrrol-2-one hydrochloride] to “rel-(3aS,6R,6aR)-6-Allyl-4-benzylsulfamoyl-5-oxo-hexahydro-pyrrolo[3,2-b]pyrrole-1-carboxylic acid benzyl ester [Example 19]”, the IC50 rises from 61 nM to 5230 nM (86-fold). The first is the more potent here.

C/C=C/C(=O)N1CC[C@H]2[C@H]1[C@@H](CCC)C(=O)N2S(C)(=O)=O (relative stereo) [Example 131, rel-(3R,3aR,6aS)-4-But-2E-enoyl-1-methanesulfonyl-3-propyl-hexahydro-pyrrolo[3,2-b]pyrrol-2-one] and CCC[C@H]1C(=O)N(S(=O)(=O)c2ccc3ccccc3c2)[C@H]2CCN(S(=O)(=O)CCCCN3CCOCC3)[C@H]12 (relative stereo) [Example 11, rel-(3R,3aR,6aS)-4-(4-Morpholin-4-yl-butane-1-sulfonyl)-1-(naphthalene-2-sulfonyl)-3-propyl-hexahydro-pyrrolo[3,2-b]pyrrol-2-one] are within 1.5-fold of each other in IC50: 102 nM for the first, 111 nM for the second.

CCC[C@H]1C(=O)N(S(=O)(=O)c2ccccc2)[C@H]2CCN(C(=O)CCCCCN3CCCCC3)[C@H]12 (relative stereo) [Example 206, rel-(3R,3aR,6aS)-1-Benzenesulfonyl-4-(6-piperidin-1-yl-hexanoyl)-3-propyl-hexahydro-pyrrol[3,2-b]pyrrol-2-one DL-tartrate] and CCC[C@H]1C(=O)N(S(C)(=O)=O)[C@H]2CCN(C(=O)CCN(CC)CC)[C@H]12 (relative stereo) [Example 91, rel-(3R,3aR,6aS)-4-(3-Diethylamino-propionyl)-1-methanesulfonyl-3-propyl-hexahydro-pyrrolo-3,2-b]pyrrol-2-one hydrochloride] are within 1.5-fold of each other in IC50: 87 nM for the first, 64 nM for the second.

Compared with CCC[C@H]1C(=O)N(S(C)(=O)=O)[C@H]2CCN(C(=O)CCN3CCCCC3)[C@H]12 (relative stereo) [Example 30, rel-(3R,3aR,6aS)-1-Methanesulfonyl-4-(3-piperidin-1-yl-propionyl)-3-propyl-hexahydro-pyrrolo[3,2-b]pyrrol-2-one hydrochloride], CCC[C@H]1C(=O)N(S(C)(=O)=O)[C@H]2CCN(C(=O)CN3CCCC3)[C@H]12 (relative stereo) [Example 108, hydrochloride] is 2.5-fold higher in IC50: 189 nM for the first, 481 nM for the second. The first is the more potent here.

Going from CCCCOc1ccc(S(=O)(=O)N2CC[C@H]3[C@H]2[C@@H](C(C)C)C(=O)N3S(C)(=O)=O)cc1 (relative stereo) [Example 230, rel-(3R,3aR,6aS)-4-(4-Butoxy-benzenesulfonyl)-3-isopropyl-1-methanesulfonyl-hexahydro-pyrrolo[3,2-b]pyrrol-2-one] to CCC[C@H]1C(=O)N(S(C)(=O)=O)[C@H]2CCN(S(C)(=O)=O)[C@H]12 (relative stereo) [Example 26, rel-(3R,3aR,6aS)-1,4-Bis-methanesulfonyl-3-propyl-hexahydro-pyrrolo[3,2-b]pyrrol-2-one], the IC50 falls from 92 nM to 20 nM (4.6-fold).

First: CCC[C@H]1C(=O)N(S(C)(=O)=O)[C@H]2CCN(C(=O)Cn3ccccc3=O)[C@H]12 (relative stereo) [Example 112, rel-(3R,3aR,6aS)-1-Methanesulfonyl-4-[(2-oxo-2H-pyridin-1-yl)-acetyl]-3-propyl-hexahydro-pyrrolo[3,2-b]pyrrol-2-one]
Second: CCC[C@H]1C(=O)N(S(=O)(=O)CC)[C@H]2CCN(S(=O)(=O)CCCN3CCCCC3)[C@H]12 (relative stereo) [Example 165, rel-(3R,3aR,6aS)-1-Ethanesulfonyl-4-(3-piperidin-1-yl-propane-1-sulfonyl)-3-propyl-hexahydro-pyrrolo[3,2-b]pyrrol-2-one DL-tartrate]
The IC50 of the first is 2.6-fold higher: 222 nM for the first, 86 nM for the second. The second is the more potent here.

First: CCC[C@H]1C(=O)N(S(C)(=O)=O)[C@H]2CCN(C(=O)c3ccc(C(F)(F)F)cc3)[C@H]12 (relative stereo) [Example 244, rel-(3R,3aR,6aS)-1-Methanesulfonyl-3-propyl-(4-trifluoromethyl-benzoyl)-hexahydro-pyrrolo[3,2-b]pyrrol-2-one]
Second: CCC[C@H]1C(=O)N(S(C)(=O)=O)[C@H]2CCN(C(=O)CCCN3CCN(C)CC3)[C@H]12 (relative stereo) [Example 82, rel-(3R,3aR,6aS)-1-Methanesulfonyl-4-[4-(4-methyl-piperazin-1-yl)-butyryl]-3-propyl-hexahydro-pyrrolo[3,2-b]pyrrol-2-one dihydrochloride]
The IC50 of the first is 15-fold lower: 11 nM for the first, 162 nM for the second. The first is the more potent here.

CCC[C@H]1C(=O)N(S(C)(=O)=O)[C@H]2CCN(S(=O)(=O)c3ccc(C(F)(F)F)cc3)[C@H]12 (relative stereo) [Example 216, rel-(3R,3aR,6aS)-1-Methanesulfonyl-3-propyl-4-(4-trifluoromethyl-benzenesulfonyl)-hexahydro-pyrrolo[3,2-b]pyrrol-2-one] and C=CC[C@H]1C(=O)N(S(=O)(=O)/C=C/c2ccccc2)[C@H]2CCN(C(=O)OCc3ccccc3)[C@H]12 (relative stereo) [Example 44, rel-(3aS,6R,6aR)-6-Allyl-5-oxo-4-(2-phenyl-(E)-ethenesulfonyl)-hexahydro-pyrrolo[3,2-b]pyrrole-1-carboxylic acid benzyl ester] are within 1.5-fold of each other in IC50: 87 nM for the first, 94 nM for the second.

Molecule CCC[C@H]1C(=O)N(S(C)(=O)=O)[C@H]2CCN(S(=O)(=O)c3ccc(CN4CCCCCC4)cc3)[C@H]12 (relative stereo) [Example 195, rel-(3R,3aR,6aS)-4-(4-Azepin-1-ylmethyl-benzenesulfonyl)-1-methanesulfonyl-3-propyl-hexahydro-pyrrolo[3,2-b]pyrrol-2-one hydrochloride] has an IC50 of 68 nM.
